The values that follow come from US20100178250A1, “Method of Local Delivery of Bioactive and Diagnostic Agents Using Magnetizable Bone Cement” (Philadelphia Health & Education Corporation, priority 2006, published 2010).

One experiment has as its system Staphlococcus aureus. Description: Staphlococcus aureus bacterial cultures (plate, clear areas). Particulars: 150 μL beads or 10 mg tobramycin disc on plate. The format is cell-based. The method, then:
Staphlococcus aureus bacterial cultures were performed in the microbiology department of Hahnemann University Hospital. On each plate 150 μL of control beads, 150 μL, of antibiotic beads and a 10 mg tobramycin disc were placed in order to see any bactericidal activity.

Experiment [1] has as its system bacterial strains cultured directly from clinically retrieved gentamicin-loaded bone cement. The note with it: cited from earlier work.

Consider `NC[C@H]1O[C@H](O[C@H]2[C@H](O)[C@@H](O[C@H]3O[C@H](CO)[C@@H](O)[C@H](N)[C@H]3O)[C@H](N)C[C@@H]2N)[C@H](N)C[C@@H]1O` [tobramycin disc, tobramycin], for which the “bactericidal activity (clear areas indicating lack of bacterial growth)” value in the experiment on Staphlococcus aureus is listed as “clear areas present”.

In the case of gentamicin, the gentamicin resistant strains in experiment [1] is listed as 19 of 28.
